Source: PMC6527222 (PLoS ONE, 2019)
Read-outs that look alike come from different tables or passages of the source.

What was measured:
JB6 P+ cells [1] = assay: SRB cytotoxicity assay; type: cell-based, mouse; settings: 72 hr; NT = no toxicity at any concentration tested
Description: 96-well plates were seeded with 3x10^3 JB6 P+ cells per well and allowed to attach overnight. […] Cell viability was determined using Sulforhodamine B (SRB) assay from Sigma-Aldrich according to the manufacturer’s protocol. Cellular protein content was measured using a Bio-Tek μQuant plate reader with KCJunior software.
Concentration-response curves were normalized so that the EGF positive control on each 96-well plate was set to 100% and the control wells on each plate were set to 0%. Toxicity assays (SRB and MTS) were normalized so that the control on each plate represented 100% viability. Normalization allowed for comparison of data over a range of JB6 P+ cell cultures, passages, and experimental time for the shRNA studies, as well as control for variation in the EGF response, and importantly allowed for a direct comparison to all concentration-response experiments including the toxicity assays. […] All group sizes were determined via previous studies to provide statistically meaningful data. In the soft agar assays, key results were repeated with different JB6 P+ cells to confirm the results. Similarly, the shRNA studies were conducted with three independent concentration-response curves with different JB6 P+ cell stocks. […] For two sample comparisons a t-test was utilized, and when comparing multiple samples a One-, Two-, or Three-Factor ANOVA followed by Tukey-Kramer post hoc test was utilized depending on the data. For all tests, statistical difference was donated when p < 0.05.
The IΔ2*PSD is expressed in x-axis units (log [M]) as is an IC50 and it represents the first concentration where it is expected to observe a statistical decrease in the measured signal.
Using the formula provided by GraphPad Prism or a straight line for the point-to-point graphs, the X-axis value for point Y was determined. The error is ascribed to this measurement via adding and subtracting the pooled standard deviation (PSD) to/from point Y generating point Y ± PSD. The two new points were then transformed to the X-axis units as was done for point Y creating an asymmetric error in sigmoidal plots. When the error was asymmetric, the larger error value was chosen to err on the conservative side. See S1 Fig for a pictoral explination of the method. The data is presented as IΔ2*PSD ± error.

JB6 P+ cells [2] = assay: MTS cell proliferation assay; type: cell-based, mouse; settings: two weeks
Description: Cell viability was determined by the addition of MTS reagent according to the manufacturer’s protocol (Promega, Madison, WI) and absorbance was measured using a Bio-Tek μQuant plate reader with KCJunior software. […] Normalization allowed for comparison of data over a range of JB6 P+ cell cultures, passages, and experimental time for the shRNA studies, as well as control for variation in the EGF response, and importantly allowed for a direct comparison to all concentration-response experiments including the toxicity assays. Data are expressed as mean ± SD and were analyzed using GraphPad Prism version 7.02 (La Jolla, CA). All group sizes were determined via previous studies to provide statistically meaningful data. In the soft agar assays, key results were repeated with different JB6 P+ cells to confirm the results. Similarly, the shRNA studies were conducted with three independent concentration-response curves with different JB6 P+ cell stocks. Statistical analysis of raw data was conducted with NCSS 2007 (Kaysville, UT). For two sample comparisons a t-test was utilized, and when comparing multiple samples a One-, Two-, or Three-Factor ANOVA followed by Tukey-Kramer post hoc test was utilized depending on the data. For all tests, statistical difference was donated when p < 0.05.

JB6 P+ cells [3] = assay: Soft agar assay with competitive adrenergic receptor antagonists; type: cell-based; settings: Mus musculus, alone
Description: Ten ng/mL EGF was used to promote the anchorage-independent growth of JB6 cells. […] Plates were incubated at 37°C, 5% CO2 for 14 days. Colonies with greater than ten cells were counted manually under a microscope. Antagonists identified in our assays as ineffective at blocking EGF-mediated transformation of JB6 P+ cells yet displaying no or little toxicity were used as competitive antagonists towards carvedilol-mediated prevention of EGF-induced transformation of JB6 P+ cells.

[4] = system: hairless mice (UV-induced skin thickening); assay: Eight dose UV exposure, bi-folded epidermal thickness in hairless wild type and β2-AR knockout mice; type: in vivo, mouse; settings: 5 μM in 200 μL acetone topically every other day, 200 mJ/cm^2 UV, eight irradiations
Description: The Western University of Health Sciences’ Institutional Animal Care and Use Committee (WesternU IACUC) approved all animal studies prior to initiating any experiments. The animal studies were carried out under WesternU IACUC recommendations and guidelines, which follow NIH guidelines. Mice had access to water and food ad libitum and housed on a 12-hour light/dark cycle with 35% humidity. Homozygous β1-AR and β2-AR null mice (Adrb1^tm1Bkk Adrb2^tm1Bkk/J Stock Number 003810) were purchased from Jackson Laboratory (Bar Harbor, ME); the double knockout mice were characterized previously. The double knockout mice were bred with C57BL/6J from Jackson Lab to generate a heterozygous F1 generation. The F1 generation was bred together to generate the F2 generation of which 1/16th of the offspring were a β2-AR knockout mouse. SKH-1 mice purchased from Charles River (Wilmington, MA) were bred with the β2-AR knockout mice generating a second heterozygous F1 generation. The F1 generation was bred together to generate the F2 generation of which 1/16th of the offspring were a hairless β2-AR knockout mouse. The F2 generation was backcrossed with a new batch of SKH-1 from Charles River to generate mice more efficiently. The mice used in this study are 75% SKH-1 and 25% mixed background. Following experimentation, and to cull the unused mice in a colony, mice were euthanized via exposure to 32% Isoflurane followed by cervical dislocation to ensure euthanization prior to disposal.
The first two weeks were pretreatment and the second two weeks were during the UV irradiation procedure, but drugs were applied the day after UV exposure to avoid sunscreen effects. All groups involved with UV were irradiated with 200 mJ/cm^2 dose of UV every other day for a total of eight irradiations. Bi-folded epidermal thickness was measured using a digital caliper before drug treatment on non-radiation days. Three skin thickness measurements were taken along the left, middle, and right dorsal epidermal layer, and the mean thickness was recorded for each mouse.

JB6 P+ cells [5] = settings: previous data, cited from earlier work
α1D-AR = settings: read-out: Kd towards the α1D-AR; cited from earlier work
[6] = carvedilol cohort versus non-carvedilol cohort; cited from earlier work
A549, lung tumor, cells = settings: cited from earlier work

IC50 (JB6 P+ cells [3]; CGP 12177 experiment (Fig 5B)): 331 nM
IC50 (JB6 P+ cells [3]; HEAT HCl experiment (Fig 5C)): 275 nM
IC50 (JB6 P+ cells [3]; nadolol experiment (Fig 5A)): 282 nM
Structure (SMILES): COc1ccccc1OCCNCC(O)COc1cccc2[nH]c3ccccc3c12 (stereo not shown) [Carvedilol]
SRB Assay Log IΔ2*PSD (JB6 P+ cells [1]): -4.89 ± 0.09 log [M]
toxicity (cell viability), words (JB6 P+ cells [2]; 100 μM): maximum toxicity
toxicity (cell viability), words (JB6 P+ cells [2]; concentrations lower than 10 μM): did not affect cell viability
effect on UV-induced skin thickening, words ([4]; wild type mice): statistical difference from the UV control on day 8 onward
effect on UV-induced skin thickening, words ([4]; β2-AR knockout mice): greater effects in the knockout mice
effect on EGF-mediated transformation of JB6 P+ cells, words (JB6 P+ cells [5]): completely prevents
IC50 (JB6 P+ cells [5]; read-out: IC50, inhibition of EGF-mediated transformation): 782 nM
Kd (α1D-AR): 1.2 nM
reduction in the incidence of all types of cancer [6]: 26%
reducing the growth of injected A549 cells in vivo, words (A549, lung tumor, cells): not effective
